# Experimental data: article PMC11392399, “The final walk with preptin” (PLOS ONE, 2024)
# Columns and labels:
# [1] = test system: intracellular calcium in U-2 OS osteoblasts; assay: Changes in intracellular calcium, U-2 OS osteoblasts; type: cell-based, human; conditions: U-2 OS cells; 10^−4 M; Fluo-8 fluorescence, (Fmax−F0)/F0; one-way ANOVA
# Procedure: The day before the experiment, U-2 OS, MC3T3-E1, MIN6 and cAMP-HEK cells were seeded 6 000 (for osteoblastic cell lines U-2 OS, MC3T3-E1), 10 000 (for cAMP-HEK cells) or 30 000 (MIN6) cells per well in a black 384-well format micro plate with transparent bottom (Cat.#: 142761, Nunc, Thermo Fisher Scientific, USA). On the next day, the cultivation media was exchanged for assay buffer, consisting of HBSS (Cat.#: H6648-500ML, Sigma-Aldrich, Merck, Germany), 20 mM HEPES (Cat.#: L0180-100, Biowest, France), 2.5 mM Probenecid (Cat.#: P8761, Sigma-Aldrich, Merck, Germany), adjusted for pH 7.4 and supplemented with 4.77 μM CalciFluor™ Fluo-8, AM (Cat.#: 1345980-40-6, Santa Cruz Biotechnology, USA). After 45 min incubation with assay buffer in 37°C and 5% CO2, the cells were incubated at RT in a dark place for another 15 minutes. After this time, preptin and its analogs were added by the Agilent Bravo Automated Liquid Handling Platform (Agilent Technologies, USA). The kinetics were measured by the Spark® multimode reader from Tecan (Tecan Group Ltd., Switzerland) for 10 min (approximately 45 cycles, excitation 485 nm, emission 535 nm, band width 10 nm). Before each kinetics, the background fluorescence (F0) was measured and the result was calculated as (Fmax−F0)/F0, where Fmax corresponds to the maximum response upon stimulation by the compounds. Each compound was tested in concentration 10^−4 M.
# [2] = test system: mouse β-cell line βTC6-F7; conditions: permanent mouse β-cell line βTC6-F7; ref [8] Buchanan et al.; cited from earlier work
# Text: Cheng et al. observed an increase in insulin secretion at a glucose concentration of 25 mmol/l and Buchanan et al. used 10 mmol/l.
# [3] = test system: MIN6 pancreatic beta cells; assay: Stimulation of insulin secretion, radioimmunoassay; type: cell-based, mouse; conditions: basal glucose 10 mmol/l, various, very high concentrations of preptin, 1 h at 37°C, RIA
# Procedure: MIN6 cells were seeded at a density of 100 000 cells/well in 24-well culture dishes and grown for 3 days in 1 ml of complete medium. Before experiments, cells were maintained for 2 h in a glucose-free medium. Thereafter, the cells were washed twice and preincubated for 2 h at 37°C in 0.4 ml glucose-free Krebs-Ringer bicarbonate HEPES (KRBH) buffer of the following composition: 120 mM NaCl, 4.6 mM KCl, 2 mM CaCl2, 5 mM NaHCO3, 1 mM MgSO4, 0.4 mM KH2PO4, 0.15 mM Na2HPO4, BSA (0.2 % w/v), and 20 mM HEPES with pH value adjusted to 7.4 with NaOH. Next, the buffer was removed from cells and a new portion of 0.4 ml of glucose-free KRBH buffer, but with a respective concentration of glucose and/or preptin, was added to the cells, which were incubated for 1 h at 37°C. The cells were stimulated with various concentrations of D-glucose (0 and 10 mM) and the effects of various concentrations of mouse preptin were determined for 10 mM D-glucose concentration. After the stimulation, supernatants were collected from the cells and stored at −80°C before the measurement of insulin concentration.
# Radioimmunoassay (RIA) kits for the measurement of rat insulin (sensitive Rat Insulin RIA Kit, Cat. # SRI-13K) content in samples were provided by EMD Millipore Corporation and were used according to the manufacturer’s instructions. Each biological sample was measured in duplicate.
# hBMSC-TERT [4] = assay: Osteoblast differentiation of hBMSC-TERT, alkaline phosphatase (ALP) activity assay; type: cell-based, human; conditions: summary in the conclusions
# Procedure: (§1) hBMSC-TERT were plated at a density of 20 000 cells/cm^2 (Alizarin Red S staining) and 5 000 cells/well (ALP activity assay) in MEM medium (Gibco), supplemented with 10 % FBS (Gibco) and 1 % P/S (Gibco). One day after seeding, the medium was replaced with OB induction medium, composed of basal medium, supplemented with 10 mM B-glycerophosphate (Sigma-Aldrich), 10 nM dexamethasone (Sigma-Aldrich), 50 μg/mL vitamin C (Sigma-Aldrich), 10 nM vitamin D3 (Sigma-Aldrich) and treated with 100 ng/ml, 500 ng/ml and 1 ug/ml IGF2, IGF1, IGF2, preptin or vehicle (acetic acid) as a control. The medium was changed every other day for 7 days (ALP activity assay) or 10 days (Alizarin Red S staining).
# ALP activity and cell viability assay were quantified at Day 7 of OB differentiation, in order to normalize the ALP activity data to the number of viable cells.
# Cell viability assay was measured using a Cell Titer-Blue Assay Reagent (Promega) at fluorescence intensity (579Ex/584Em). ALP activity was detected by absorbance at 405 nm, using p-nitrophenyl phosphate (Sigma-Aldrich) as substrate.
# hBMSC-TERT [5] = assay: Osteoblast differentiation of hBMSC-TERT, Alizarin Red S staining; type: cell-based, human; conditions: increasing concentrations; day 10 of OB differentiation; compared to effects of IGF2 and preptin
# Procedure: as §1
# Mineralized matrix formation at Day 10 of OB differentiation was measured, using Alizarin Red S staining. Cells were fixed with 70 % ice-cold ethanol for 1 h at -20°C, before addition of Alizarin Red S Solution (AR-S) (Sigma-Aldrich). The cells were stained for 10 min at room temperature (RT). Excess dye was washed with distilled water and with phosphate buffered saline (PBS) (Gibco) to reduce nonspecific AR-S stain.
# [6] = test system: human primary osteoblasts; conditions: 8 days, ref [17] Bosetti et al.; cited from earlier work
substance,measurement,setting,value
"DVSTSQAVLPDDFPRYPVGKFFKFDTWRQSAGRL [peptide 19, native rat preptin]",changes in intracellular calcium relative to non-stimulated cells,[1],significant increase in intracellular calcium levels
same,increase of insulin secretion,[2],able to increase insulin secretion
"DVSTSQAVLPDDFPRYPVGKFFQYDTWRQSAGRL [peptide 14, native mouse preptin]",stimulation of insulin secretion,[3],did not observe a significant increase in insulin secretion
"IGF1: insulin-like growth factor 1, comparator hormone",osteoblast differentiation of hBMSCs,hBMSC-TERT [4],only significant changes observed for IGF1
same,Alizarin S staining of calcified matrix,hBMSC-TERT [5],largest changes
same,change in ALP activity,[6],only significant change in ALP activity
